IC50 data for 21 compounds are collected here from patent US20230019236A1, “PROTEIN TYROSINE PHOSPHATASE INHIBITORS AND METHODS OF USE THEREOF” (Calico Life Sciences LLC, priority 2019, published 2023).

Assay [1] deals with T1, His tagged full-length PTP1B protein (Homo sapiens, UniProt P18031).
T1 construct: made in house
T1 sequence (P18031 with tags, fused parts or gaps): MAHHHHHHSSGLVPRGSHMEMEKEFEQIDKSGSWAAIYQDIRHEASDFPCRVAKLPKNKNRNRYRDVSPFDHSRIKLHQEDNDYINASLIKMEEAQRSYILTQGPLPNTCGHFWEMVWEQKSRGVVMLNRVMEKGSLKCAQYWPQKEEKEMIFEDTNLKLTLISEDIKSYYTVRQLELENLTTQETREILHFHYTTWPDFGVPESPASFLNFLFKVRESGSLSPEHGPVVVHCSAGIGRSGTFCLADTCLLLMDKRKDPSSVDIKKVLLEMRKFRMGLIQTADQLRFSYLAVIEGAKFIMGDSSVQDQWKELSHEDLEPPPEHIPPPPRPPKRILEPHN
Kind of assay: Mobility Shift Assay (MSA) used to determine potency of PTP1B inhibitors. As to conditions: Table 2. The format is biochemical. As for the experimental part: The enzymatic assay used to determine activity is a mobility shift assay using a LabChip EZ Reader by Caliper Life Sciences. The enzymatic reaction was carried out in assay buffer (50 mM HEPES pH 7.5, 1 mM EGTA, 10 mM EDTA, 0.01% Tween® 20, and 2 mM DTT). […] The enzyme (at 0.5 nM) was incubated with compound for 10 minutes at room temperature. […] The % inhibition was then used to calculate the IC50 values.

In assay [2] the target is T2, His tagged PTPN2 (TC45) protein (Homo sapiens, UniProt P17706).
T2 construct: made in house
T2 sequence (P17706 with tags, fused parts or gaps isoform P17706-2): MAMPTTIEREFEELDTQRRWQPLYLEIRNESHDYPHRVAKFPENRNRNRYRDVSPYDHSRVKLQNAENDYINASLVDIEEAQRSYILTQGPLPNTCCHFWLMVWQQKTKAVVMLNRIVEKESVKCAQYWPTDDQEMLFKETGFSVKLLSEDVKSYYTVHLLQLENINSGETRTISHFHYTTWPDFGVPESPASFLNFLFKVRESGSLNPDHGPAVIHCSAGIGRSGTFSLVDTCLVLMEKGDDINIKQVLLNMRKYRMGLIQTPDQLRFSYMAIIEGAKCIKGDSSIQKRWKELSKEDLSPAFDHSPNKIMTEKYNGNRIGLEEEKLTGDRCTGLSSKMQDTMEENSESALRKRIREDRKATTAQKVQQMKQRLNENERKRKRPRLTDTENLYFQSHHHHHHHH
Kind of assay: Mobility Shift Assay used to determine potency of PTPN2 inhibitors. It counts as biochemical. As to conditions: Table 2; read-out: PTPN2 MSA IC50. As for the experimental part: Example 292: Mobility Shift Assay used to determine potency of PTPN2 inhibitors
Compound activity was determined using in house His tagged PTPN2 (TC45) protein (SEQ ID NO: 1) in an in vitro enzymatic reaction. The enzymatic assay used to determine activity was a mobility shift assay using a LabChip EZ Reader by Caliper Life Sciences. The enzymatic reaction was carried out in assay buffer (50 mM HEPES pH 7.5, 1 mM EGTA, 10 mM EDTA, 0.01% Tween® 20, and 2 mM DTT). The compounds were dispensed on a white 384 well ProxiPlate™ (PerkinElmer Catalog#6008289) plate using the Labcyte Echo at varying concentrations (12 point, 1:3 dilution). The enzyme (at 0.5 nM) was incubated with compound for 10 minutes at room temperature. Then the substrate (phosphorylated insulin receptor probe sequence: ((OG488)—{NH—CH2—CH2—O—CH2—CH2—O—CH2—CO)—T—R—D—I—(PY)—E—T—D—Y—Y—R—K—K—NH2) (SEQ ID NO: 2) was added at 2 μM to the plates and incubated for another 10 minutes at room temperature. Finally, a quench solution (water and 4-bromo-3-(2-oxo-2-propoxyethoxy)-5-(3-{[1-(phenylmethanesulfonyl)piperidin-4-yl]amino}phenyl)thiophene-2-carboxylic acid) was added to the plates, which were then run on the EZ Reader (excitation 488 nm, emission 530 nm) to measure % conversion (the amount of phosphorylated substrate which was de-phosphorylated by PTPN2). […] The % inhibition was then used to calculate the IC50 values.

Usually IC50 stands for the concentration at which inhibition is half-maximal.

Regarding `C[C@](O)(CO)CCOc1ccc2cc(O)c(N3CC(=O)NS3(=O)=O)c(F)c2c1` [Compound 343, 5-{7-[(3R)-3,4-dihydroxy-3-methylbutoxy]-1-fluoro-3-hydroxynaphthalen-2-yl}-1λ^6,2,5-thiadiazolidine-1,1,3-trione], the IC50 was 1 to 10 nM in assay [1] and less than 1 nM in assay [2].

Regarding `CC(C)CCOc1cc2c(F)c(N3CC(=O)NS3(=O)=O)c(O)cc2cc1O` [Compound 361, 5-[1-fluoro-3,6-dihydroxy-7-(3-methylbutoxy)naphthalen-2-yl]-1λ^6,2,5-thiadiazolidine-1,1,3-trione], the 50% inhibitory concentration (IC50) in assay [1] and in assay [2] was less than 1 nM throughout.

On to `COCCCOc1cc2c(F)c(N3CC(=O)NS3(=O)=O)c(O)cc2cc1O` [Compound 368, 5-[1-fluoro-3,6-dihydroxy-7-(3-methoxypropoxy)naphthalen-2-yl]-1λ^6,2,5-thiadiazolidine-1,1,3-trione], for which the IC50 in assay [1] and in assay [2] was less than 1 nM each time.

With `CC(C)(CO)CS(=O)(=O)N1CC=C(c2ccc3cc(O)c(N4CC(=O)NS4(=O)=O)c(F)c3c2)C1` [Compound 344, 5-{1-fluoro-3-hydroxy-7-[1-(3-hydroxy-2,2-dimethylpropane-1-sulfonyl)-2,5-dihydro-1H-pyrrol-3-yl]naphthalen-2-yl}-1λ^6,2,5-thiadiazolidine-1,1,3-trione], the IC50 in assay [1] and in assay [2] was less than 1 nM in each case.

For the compound `O=C1CN(c2c(O)cc3ccc(C4=CCN(S(=O)(=O)CCCO)C4)cc3c2F)S(=O)(=O)N1` [Compound 369, 5-{1-fluoro-3-hydroxy-7-[1-(3-hydroxypropane-1-sulfonyl)-2,5-dihydro-1H-pyrrol-3-yl]naphthalen-2-yl}-1λ^6,2,5-thiadiazolidine-1,1,3-trione], the IC50 in assay [1] and in assay [2] was less than 1 nM in each case.

For `O=C1CN(c2c(O)cc3cc(O)c(Br)cc3c2F)S(=O)(=O)N1` [Compound 370, 5-(7-bromo-1-fluoro-3,6-dihydroxynaphthalen-2-yl)-1λ^6,2,5-thiadiazolidine-1,1,3-trione], the IC50 in assay [1] and in assay [2] was 1 to 10 nM throughout.

On to `O=C1CN(c2c(O)cc3ccc(OCCOC(F)(F)F)cc3c2F)S(=O)(=O)N1` [Compound 354, 5-{1-fluoro-3-hydroxy-7-[2-(trifluoromethoxy)ethoxy]naphthalen-2-yl}-1λ^6,2,5-thiadiazolidine-1,1,3-trione], for which the IC50 in assay [1] and in assay [2] was 1 to 10 nM each time.

On to `N#CCC1(COc2ccc3cc(O)c(N4CC(=O)NS4(=O)=O)c(F)c3c2)CC1` [Compound 130, [1-({[8-fluoro-6-hydroxy-7-(1,1,4-trioxo-1λ^6,2,5-thiadiazolidin-2-yl)naphthalen-2-yl]oxy}methyl)cyclopropyl]acetonitrile], for which the IC50 in assay [1] and in assay [2] was 1 to 10 nM each time.

For the compound `CCc1cc2c(F)c(N3CC(=O)NS3(=O)=O)c(O)cc2cc1O` [Compound 358, 5-(7-ethyl-1-fluoro-3,6-dihydroxynaphthalen-2-yl)-1λ^6,2,5-thiadiazolidine-1,1,3-trione], the IC50 in assay [1] and in assay [2] was 1 to 10 nM each time.

For the compound `CC(C)(O)CCOc1cc2c(F)c(N3CC(=O)NS3(=O)=O)c(O)cc2cc1O` [Compound 355, 5-[1-fluoro-3,6-dihydroxy-7-(3-hydroxy-3-methylbutoxy)naphthalen-2-yl]-1λ^6,2,5-thiadiazolidine-1,1,3-trione], the IC50 in assay [1] and in assay [2] was less than 1 nM each time.

Take `O=C1CN(c2c(O)cc3ccc(OCCNS(=O)(=O)C4CC4)cc3c2F)S(=O)(=O)N1` [Compound 127, N-(2-{[8-fluoro-6-hydroxy-7-(1,1,4-trioxo-1λ^6,2,5-thiadiazolidin-2-yl)naphthalen-2-yl]oxy}ethyl)cyclopropanesulfonamide]: the 50% inhibitory concentration (IC50) in assay [1] and in assay [2] was 1 to 10 nM throughout.

In the case of `O=C1CN(c2c(O)cc3cc(O)c(OCCC4CCC4)cc3c2F)S(=O)(=O)N1` [Compound 362, 5-[7-(2-cyclobutylethoxy)-1-fluoro-3,6-dihydroxynaphthalen-2-yl]-1λ^6,2,5-thiadiazolidine-1,1,3-trione], the IC50 in assay [1] and in assay [2] was less than 1 nM each time.

On to `O=C1CN(c2c(O)cc3cc(O)c(OCCCC(F)F)cc3c2F)S(=O)(=O)N1` [Compound 365, 5-[7-(4,4-difluorobutoxy)-1-fluoro-3,6-dihydroxynaphthalen-2-yl]-1λ^6,2,5-thiadiazolidine-1,1,3-trione], for which the IC50 in assay [1] and in assay [2] was less than 1 nM in each case.

With `O=C1CN(c2c(O)cc3ccc(OCCN4CCNC4=O)cc3c2F)S(=O)(=O)N1` [Compound 326, 5-{1-fluoro-3-hydroxy-7-[2-(2-oxoimidazolidin-1-yl)ethoxy]naphthalen-2-yl}-1λ^6,2,5-thiadiazolidine-1,1,3-trione], the IC50 in assay [1] is 10 to 100 nM; in assay [2], less than 1 nM.

Take `NCCCS(=O)(=O)N1CC=C(c2ccc3cc(O)c(N4CC(=O)NS4(=O)=O)c(F)c3c2)C1` [Compound 345, 5-{7-[1-(3-aminopropane-1-sulfonyl)-2,5-dihydro-1H-pyrrol-3-yl]-1-fluoro-3-hydroxynaphthalen-2-yl}-1λ^6,2,5-thiadiazolidine-1,1,3-trione]: the values for the IC50 in assay [1] and in assay [2] were 1 to 10 nM and less than 1 nM, respectively.

With `O=C1CN(c2c(O)cc3cc(OCCCC(F)F)ccc3c2F)S(=O)(=O)N1` [Compound 340, 5-[6-(4,4-difluorobutoxy)-1-fluoro-3-hydroxynaphthalen-2-yl]-1λ^6,2,5-thiadiazolidine-1,1,3-trione], the IC50 in assay [1] and in assay [2] was 10 to 100 nM throughout.

For the compound `CC(C)(CCN)CCOc1ccc2cc(O)c(N3CC(=O)NS3(=O)=O)c(F)c2c1` [Compound 348, 5-{7-[(5-amino-3,3-dimethylpentyl)oxy]-1-fluoro-3-hydroxynaphthalen-2-yl}-1λ^6,2,5-thiadiazolidine-1,1,3-trione], the IC50 in assay [1] and in assay [2] was less than 1 nM in each case.

For the compound `O=C1CN(c2c(O)cc3cc(OCC4CC4)ccc3c2F)S(=O)(=O)N1` [Compound 338, 5-[6-(cyclopropylmethoxy)-1-fluoro-3-hydroxynaphthalen-2-yl]-1λ^6,2,5-thiadiazolidine-1,1,3-trione], the IC50 in assay [1] and in assay [2] was 10 to 100 nM throughout.

Take `CC(C)(C)CCOc1cc2c(F)c(N3CC(=O)NS3(=O)=O)c(O)cc2cc1O` [Compound 359, 5-[7-(3,3-dimethylbutoxy)-1-fluoro-3,6-dihydroxynaphthalen-2-yl]-1λ^6,2,5-thiadiazolidine-1,1,3-trione]: the IC50 in assay [1] and in assay [2] was less than 1 nM in each case.

Take `CC(C)(C)CCOc1ccc2cc(O)c(N3CC(=O)NS3(=O)=O)c(F)c2c1` [Compound 352, 5-[7-(3,3-dimethylbutoxy)-1-fluoro-3-hydroxynaphthalen-2-yl]-1λ^6,2,5-thiadiazolidine-1,1,3-trione]: the IC50 in assay [1] and in assay [2] was less than 1 nM in each case.

Regarding `COc1ccc2c(F)c(N3CC(=O)NS3(=O)=O)c(O)cc2c1` [Compound 335, 5-(1-fluoro-3-hydroxy-6-methoxynaphthalen-2-yl)-11λ^6,2,5-thiadiazolidine-1,1,3-trione], the IC50 in assay [1] and in assay [2] was 10 to 100 nM throughout.
